“Also recorded” adds a separate entry of the source.
Columns and labels:
[1] = test system: TRIB3; experiment: TRIB3 expression after IL-6, MDA-MB-231 cells (WB); assay type: cell-based; conditions: various IL-6 concentrations 8 hr, or 10 ng/ml IL-6 for different times
Method: Cycloheximide (CHX; Sigma Aldrich, R750107) was used as a protein synthesis inhibitor to assess the stability of the existing proteins. To assess protein stability, cells were treated with 20 μM CHX and the proteasome inhibitor MG132 (Sigma Aldrich, R750107) at 10 μM or the autophagy inhibitor BAF (Sigma Aldrich, B1793) at 200 nM for the indicated times. Protein expression was assessed via immunoblot analysis with cell lysates (20–60 μg) prepared in RIPA lysis buffer containing protease inhibitors (Roche) using anti-SOX2 (3529), anti-NANOG (4903), anti-OCT4 (2750), anti-KLF4 (4038), anti-c-Myc (13987), anti-FOXO1 (2880), anti-p-FOXO1 (9461), anti-AKT (4685), anti-p-AKT (4060), anti-β-ACTIN (4970), anti-Ubiquitin (3936), or anti-LaminA/C (4777) antibodies from CST; anti-TRIB3 antibody (ab75846) from Abcam; and anti-Trib3 antibody (PA5-15480) from Thermo Fisher Scientific[59]. […] The protein concentrations were determined by BCA Protein Assay Kits (Pierce). […]
(GSE12790). Relative amounts of TRIB3 transcripts were measured using the 205805_s_at probe. […]
levels of TRIB3 mRNA. Metastasis-free survival was determined by Kaplan–Meier analyses, and
significant differences were determined by log-rank tests. […]
24 hr, glucose deprivation (DG) for 12 hr, and high glucose (HG) for 24 hr was detected by Western […]
8 hr (f) or 10 ng/ml IL-6 for different amounts of time (g) was detected by WB. […]

[2] = test system: TRIB3; experiment: TRIB3 expression after cytokines or stressors, MCF7 cells (WB); assay type: cell-based, human
Method: Cycloheximide (CHX; Sigma Aldrich, R750107) was used as a protein synthesis inhibitor to assess the stability of the existing proteins. To assess protein stability, cells were treated with 20 μM CHX and the proteasome inhibitor MG132 (Sigma Aldrich, R750107) at 10 μM or the autophagy inhibitor BAF (Sigma Aldrich, B1793) at 200 nM for the indicated times. Protein expression was assessed via immunoblot analysis with cell lysates (20–60 μg) prepared in RIPA lysis buffer containing protease inhibitors (Roche) using anti-SOX2 (3529), anti-NANOG (4903), anti-OCT4 (2750), anti-KLF4 (4038), anti-c-Myc (13987), anti-FOXO1 (2880), anti-p-FOXO1 (9461), anti-AKT (4685), anti-p-AKT (4060), anti-β-ACTIN (4970), anti-Ubiquitin (3936), or anti-LaminA/C (4777) antibodies from CST; anti-TRIB3 antibody (ab75846) from Abcam; and anti-Trib3 antibody (PA5-15480) from Thermo Fisher Scientific[59]. All antibodies were used at 1:1000 dilution, with the exception of anti-β-Actin antibodies, which were used at 1:2000 dilution. The protein concentrations were determined by BCA Protein Assay Kits (Pierce). Proteins were separated by SDS-polyacrylamide gel electrophoresis (PAGE) and transferred to polyvinylidene difluoride membrane. […]
(f, g) The expression of
TRIB3 in MCF7 cells (top) or MDA-MB-231 cells (bottom) treated with various concentrations of IL6 for
8 hr (f) or 10 ng/ml IL-6 for different amounts of time (g) was detected by WB. (h) Silencing TRIB3
decreased the tumor sphere formation ability of MCF7 cells with or without IL-6 stimulation. […]
Data are shown as the mean ± SEM; P>0.05 was considered not significant (N.S.); *P<0.05, **P<0.01
and ***P<0.001, compared with the con group in panels d-f. Source data are provided as a Source Data

[3] = test system: MCF7 cells; experiment: Mammosphere (tumorsphere) formation, MCF7 cells; assay type: cell-based, human; conditions: one week of IL-6, serum-free spheroid suspension culture
[4] = test system: TRIB3; experiment: Relative TRIB3 mRNA in control or FOXO1-silenced MCF7 cells after stressors; assay type: cell-based, human; conditions: FOXO1-shRNA MCF7 cells, in words
[5] = test system: MCF7 cells; experiment: TRIB3/AKT/FOXO1/SOX2 axis after IL-6, CoCl2 or high glucose, MCF7 cells (WB); assay type: cell-based, human; conditions: MCF7 cells, IL-6 12 hr, high glucose 24 hr, WB

## IL-6: cytokine interleukin (IL)-6
[1]
  TRIB3 expression, dose- and time-dependence: enhanced TRIB3 expression in MCF7 and MDA-MB-231 cells in dose-
[2]; cytokines 8 hr, high glucose 24 hr
  TRIB3 expression: enhanced TRIB3 expression in MCF7 cells
[2]; various IL-6 concentrations 8 hr, or 10 ng/ml IL-6 for different times
  TRIB3 expression, dose- and time-dependence: enhanced TRIB3 expression in MCF7 and MDA-MB-231 cells in dose-
[3]
  tumorsphere-formation ability: increased the tumorsphere-formation ability
[4]
  TRIB3 expression in FOXO1-silenced BCCs: could enhance TRIB3 expression in FOXO1-silenced BCCs
[5]; CoCl2 24 hr
  expressions of FOXO1 and SOX2: enhance; also recorded: enhanced expressions of FOXO1 and SOX2
[5]
  activity of FOXO1 S256: reduced the activity of FOXO1^S256
